Results: BindingDB's records for doi:10.1124/jpet.104.070086 (University of North Carolina At Chapel Hill, 2004)

Biological target: Histamine H1 receptor (Cavia porcellus, UniProt P31389)
Sequence (P31389 whole entry): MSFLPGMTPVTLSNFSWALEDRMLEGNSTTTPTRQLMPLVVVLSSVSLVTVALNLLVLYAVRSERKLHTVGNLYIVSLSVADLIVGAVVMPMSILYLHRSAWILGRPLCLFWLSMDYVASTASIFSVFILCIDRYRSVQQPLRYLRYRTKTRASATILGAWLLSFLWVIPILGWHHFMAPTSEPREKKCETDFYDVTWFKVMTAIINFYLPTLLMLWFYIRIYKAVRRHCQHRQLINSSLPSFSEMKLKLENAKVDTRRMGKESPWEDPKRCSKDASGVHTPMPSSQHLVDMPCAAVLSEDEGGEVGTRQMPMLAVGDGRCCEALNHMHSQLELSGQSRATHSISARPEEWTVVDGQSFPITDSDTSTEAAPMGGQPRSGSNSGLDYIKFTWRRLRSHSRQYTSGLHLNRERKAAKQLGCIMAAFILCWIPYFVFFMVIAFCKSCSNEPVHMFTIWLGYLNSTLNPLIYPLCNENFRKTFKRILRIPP

- Ki: 0.93 nM
Structure (SMILES): Cc1ccc(C(=CCN2CCCC2)c2ccccn2)cc1 [CAS_486-12-4]
